From patent US11278567B2, “Methods of modifying neuronal function by changing intracellular magnesium levels” (Neurocentria, Inc., priority 2016, dated 2022)
Values joined by “and” are separate entries in the source; they are usually repeats but may differ in a detail not shown here. Equal values may be shown once. “Also recorded” adds a separate entry of the source.

Columns and labels:
Assay type in all cases: cell-based, Sprague-Dawley rats
[1] = system: hippocampal CA3-CA1 pyramidal neurons; experiment: Intracellular Mg2+ measurement with Magnesium Green-AM (MgGrn); settings: for [Mg2+]i after blockade of axonal transport: 0.5 mM
Method: (§1) High-density primary cultures of hippocampal CA3-CA1 pyramidal neurons of neonatal Sprague-Dawley rats (<24 hr) were used in the current study, as described before (Slutsky et al., Neuron. 2004; 44(5):835-49). The neurons were cultured on 1 #coverslips (8 mm×8 mm) for 14-28 days in vitro (div) before use. [Mg^2+]o in culture medium was adjusted to different concentrations according to experimental designs. In each experiment, sister cultures from the same batch were always used for treatment and control conditions on the same day, and the experimental results were repeated using several different batches.
The mature cultures were incubated in Tyrode's solution with 2 μM Magnesium Green™-AM (MgGrn, an intracellular Mg^2+ indicator, Invitrogen) for 30 min and washed out for 20 min; both at 37° C. Fluorescent images of several AOIs in each coverslip were taken on FV300 at RT. In the current study, the MgGrn fluorescence at basal condition (without eliciting any AP stimulus) (FIG. 1A) was measured to eliminate any effects caused by AP-induced intracellular Ca^2+ fluctuations. Since the intracellular Ca^2+ concentration ([Ca^2+]i) at basal condition was usually <100 nM, the contribution of Ca^2+ to MgGrn fluorescence was very small. Thus, the fluorescent intensity of MgGrn could be considered proportional to [Mg^2+]i. Since the measured MgGrn fluorescence was also dependent on the local volume of branches in network, a physical model was built to describe this phenomenon and the calculating formula that corrected the effect of varying local volumes was derived.
In the experiments, given a randomly selected AOI of dendritic area (the image was obtained as described above), 50-100 branches were randomly selected from each AOI and the mean intensity of fluorescence (i.e. F(z)max) of each branch was measured. Meanwhile, the diameter of each branch (d) was measured from the DIC image, then the F(z)max/d was calculated to represent the [Mg^2+]i in the branch. The mean value of these 50-100 branches was calculated to represent the level of [Mg^2+]i in the AOI. […]

[2] = system: hippocampal CA3-CA1 pyramidal neurons; experiment: Functional terminal density (N5AP): FM dye vesicle turnover under 5AP bursts; settings: for N5AP after blockade of axonal transport: 0.5 mM
Method: as §1
Vesicle turnover in response to bursting action potentials (see below) is a measure of the functional status of a presynaptic terminal. FM dyes were used to visualize the vesicle turnover of presynaptic terminals. In the current study, 10 μM FM1-43 or 20 μM FM4-64 (Biotium) was loaded under different patterns of field stimulations, such as 5AP bursts (5 action potentials (Aps) at 100 Hz for each burst, 6 bursts (30 APs totally) with 10 s inter burst interval were given) and “maximal stimulation” (600 APs at 10 Hz). Releasable fluorescence in the AOI (ΔF) was obtained from the difference of loading (F1) and unloading (F2) images, i.e. ΔF=F1−F2 (see FIG. 1A). For FIG. 3C, the loading/unloading procedures were performed under 5AP bursts and 600AP stimulation at the same area of network successively. Subsequently, the ΔF5AP and ΔF600AP images were registered to colocalize the vesicle turnover for these two stimulating protocols for individual terminals.
The functional terminal density (N5AP) at a dendritic branch was defined as the number of 5AP bursting stimulation induced FM(+) puncta (#FM5AP) per unit area of dendritic branch (A), N5AP=#FM5AP/A. […] immunofluorescence (IF) staining of MAP2 (as described below), which specifically presents in dendritic skeleton, was used to label dendritic area and A was calculated from MAP2(+) area. To limit the error of A introduced by the immunoreactivity of MAP2(+), the staining and imaging parameters were rigorously controlled in different batches of IF and the grey-scale histograms of MAP2(+) images were equalized before measuring A. Here, to ensure the equalized MAP2(+) marked area could reflect the real morphology of dendrites, the parameters of histogram equalization were set based on the comparison of MAP2(+) and DIC images. For most experiments, the average N5AP of an AOI was calculated from the total number of FM(+) puncta divided by total MAP2(+) area to reduce the sampling error. Then the mean N5AP of all AOIs (1-5 AOIs/coverslip) was used to represent the average N5AP in a coverslip; for each statistical data point, several coverslips were used and the mean±standard error of the mean (SEM) of all coverslips was represented (see figure legends). For FIGS. 3B and D, the FM(+) puncta density induced by 600AP stimulation was also calculated and presented in the same way as described above. Exceptionally, for FIG. 2B, each point represented the N5AP at a single segment of dendritic branch. In general, in an AOI (59 μm×59 μm, with varying dendritic density) 351-1598 presynaptic functional terminals could be detected by FM dyes for different experimental groups under 5AP bursting stimulation.

[3] = system: hippocampal CA3-CA1 pyramidal neurons; experiment: In vitro immunofluorescence quantification of presynaptic proteins in terminals
Method: as §1
The neurons were fixed in 1×PBS (pH 7.4) containing 1% Paraformaldehyde (E.M.S.), 0.01% Glutaraldehyde (Alfa Aesar) and 4% Sucrose (Amresco) for 1 hr RT. […]
For FIG. 3B, the average density of immunoreactive puncta of a given AOI was calculated from the total puncta number divided by the total MAP2(+) area; the values from several AOIs were averaged to represent the average puncta density in a coverslip; for each data bar, the mean±SEM of these coverslips were presented. […] For FIGS. 5C and 5D, the mean fluorescence intensity per pixel in each cell body was measured (the somatic area of each cell body was measured from DIC image) and then the mean±SEM of all the cell bodies were presented. […]

[4] = system: hippocampal CA3-CA1 pyramidal neurons; experiment: Mitochondrial status assessment (JC-1 membrane potential, mitochondrial density)
Method: The neurons were cultured on 1 #coverslips (8 mm×8 mm) for 14-28 days in vitro (div) before use. [Mg^2+]o in culture medium was adjusted to different concentrations according to experimental designs.
For FIG. 7A, mitochondria were marked with 40 nM Mitoview633 (Biotium) for 15 min and then washed out in blank medium for 15 min, both at 37° C. For FIG. 6A, the membrane potential-sensitive fluorescent dye JC-1 (1 μM) (Invitrogen) was used. JC-1 was incubated for 15 min followed by a 15 min washout at 37° C. Fluorescent images were taken on FV300 confocal. Mitochondrial membrane potential (ΔΨ) of each mitochondrion was estimated by the ratio of fluorescence of aggregate versus monomer form of JC-1, i.e. Faggr/Fmono. JC-1 was excited by 488 nm laser and the emission spectra were collected at 510-575 nm and >575 nm at the same time separately. Then the ratio of fluorescence at >575 nm versus at 510-575 nm (Faggr/Fmono) was calculated for each individual mitochondrial punctum to represent the ΔΨ of that mitochondrion. To estimate the valid range of Faggr/Fmono, Faggr/Fmono of individual mitochondria was measured before and after administering 5 μM Carbonyl cyanide 4-(trifluoromethoxy)phenylhydrazone (FCCP) 5 min at the same AOI. […] Faggr/Fmono was calculated for each individual meaningful punctum and the mean value of population was calculated from all the puncta to represent the general ΔΨ in this AOI. 3-5 AOIs were measured for each coverslip and the mean of the AOIs were calculated to represent the average ΔΨ of the coverslip. For each bar or point in FIG. 6, several coverslips were used (described in legends). The density of mitochondria (Nmito) was also quantified by counting the number of JC-1-aggregate(+) fluorescent puncta (FIG. 6) or MitoView633(+) puncta (FIG. 7) per area of branches.

[5] = system: hippocampal CA3-CA1 pyramidal neurons; experiment: Probability of transmitter release (Pr) in individual boutons, FM dye; settings: [Mg2+]o elevated from 0.8 to 1.2 mM for four hours; single action potential input
Method: FIGS. 25Aa to 25B. Intracellular Mg^2+ is a negative regulator of Pr. (FIG. 25Aa-25Ac) Inverse relationship between Pr and intracellular Mg^2+ concentration ([Mg^2+]i) in individual boutons. For individual terminals, the higher the [Mg^2+]i, the lower the Pr. (FIG. 25Aa) [Mg^2+]i and Pr in individual boutons were determined by Magnesium Green (MgGrn) and FM4-64, respectively. (FIG. 25Ab) Pr was negatively associated with [Mg^2+]i in individual boutons in a synaptic network. (FIG. 25Ac) Pr was linearly correlated with 1/[Mg^2+]i. […] Extracellular Mg^2+ concentration ([Mg^2+]o) was elevated from 0.8 to 1.2 mM for four hours to increase [Mg^2+]i.
FIGS. 26A and 26B. (FIG. 26A) Representative DIC and FM1-43 images comparing presynaptic responses to single (“1AP”: 30AP0.5 Hz) and bursting (“5AP”: 6 groups of 5 APs at 100 Hz, ISI 10 sec) stimulus at low (0.8 mM) and high (1.2 mM) [Mg^2+]o. (FIG. 26B) Quantitative analysis of images from FIG. 26A. ***p<0.001. For methods see Slutsky et al, 2004, and Example 1. 2AP and 3AP refer to 6 groups of 2 APs at 100 Hz or 3 APs at 100 Hz, respectively.

[6] = elevating Mg2+ level for long term (>48 hr)

Compound: COc1cc2c(c(OC)c1OC)-c1ccc(OC)c(=O)cc1[C@@H](NC(C)=O)CC2 [Colchicine]
- [Mg2+]i after blockade of axonal transport ([1]; at the high [Mg2+]o condition): without change
- [Mg2+]i after blockade of axonal transport ([1]; while increasing [Mg2+]o): did not prevent elevation
- N5AP after blockade of axonal transport ([2]; at the high [Mg2+]o condition): remarkable reduction
- N5AP after blockade of axonal transport ([2]; while increasing [Mg2+]o): prevented the increase
- concentration of presynaptic proteins in terminals ([3]; 0.5 mM, as a function of blocking time, low and high [Mg2+]o): decrease; also recorded: decreased linearly

Compound: N#CC(C#N)=NNc1ccc(OC(F)(F)F)cc1 [FCCP, Carbonyl cyanide 4-(trifluoromethoxy)phenylhydrazone, reference compound]
- mean Faggr/Fmono of all mitochondria (JC-1, ΔΨ) ([4]; 5 μM, 5 min, from 1.21±0.02 before): 0.26±0.002

Compound: CN(C)CCCN1c2ccccc2CCc2ccccc21 [Imipramine]
- [Mg2+]i (MgGrn fluorescence) ([1]; 1 μM for 4 hr): elevation
- functional terminal density (N5AP) ([2]; 1 μM for 4 hr added to Ctrl ([Mg2+]o 0.8 mM), 5AP bursts): increased
- persistence of N5AP enhancement ([2]; after 1 μM for 4 hr): ~32 h

Compound: [Mg+2] [Mg^2+]
- probability of release (Pr) [5]: reduced
- increase in mitochondrial membrane potential (ΔΨ) ([4]; elevating Mg2+ for 4 hr): ~39%
- increase in general mitochondrial function (Nmito×ΔΨ) ([4]; elevating Mg2+ level for 4 hr): ~68% and 67.8±12.4%
- increase in mitochondrial density (Nmito) in distal branches ([4]; elevating Mg2+ level for 4 hr): ~20% and 19.4±2.9%
- increase in general mitochondrial function (Nmito×ΔΨ) [4, 6]: 56.2±6.5%
- increase in mitochondrial density (Nmito) in distal branches [4, 6]: 19.6±2.1%
- terminals functional in response to 5AP bursts (of 600AP-releasable terminals) ([2]; [Mg2+]o elevated from 0.8 to 1.2 mM for 4 hr): 90.6±2.9% and ~90%
- increase in expression of Ca2+ sensor (SYT1) and coupling proteins in terminals ([3]; high [Mg2+]o (1.2 4 hr) vs Ctrl 0.8): 30-44%
